Experimental data: ChEMBL document CHEMBL1201862, “PubChem BioAssay data set” (2004)
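Step 1: Grow cells in 96-well plates. Step 2: Expose to compound for 48 hours at 5 concentrations. Step 3: Interpolate endpoints linearly; if unreached, use highest concentration. At the GI50, growth is halved.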 The source made the active and inactive calls. No stated cut-off is given here; in the data, active = GI50 up to about 1.1 µM and inactive = higher.

Tests used:
Assay in all cases: inhibition of tumour cell growth, NCI panel, 48 h
[1] = system: CCRF-CEM
[2] = system: RPMI-8226
[3] = system: NCI/ADR-RES
[4] = system: SR
[5] = system: A498
[6] = system: CAKI-1
[7] = system: UO-31
[8] = system: UACC-257
[9] = system: MDA-MB-435
[10] = system: HCC 2998
[11] = system: SK-MEL-5
[12] = system: SK-MEL-2
[13] = system: M14
[14] = system: MCF7
[15] = system: SF-539
[16] = system: NCI-H460
[17] = system: HOP-92
[18] = system: DU-145
[19] = system: HCT-116
[20] = system: LOX IMVI
[21] = system: EKVX
[22] = system: HOP-62
[23] = system: IGROV-1
[24] = system: U-251
[25] = system: BT-549
[26] = system: MOLT-4
[27] = system: SF-295
[28] = system: SNB-75
[29] = system: ACHN
[30] = system: MDA-MB-231
[31] = system: A549
[32] = system: OVCAR-4
[33] = system: RXF 393
[34] = system: KM12
[35] = system: Hs-578T
[36] = system: NCI-H226
[37] = system: OVCAR-5
[38] = system: OVCAR-8
[39] = system: OVCAR-3
[40] = system: COLO 205
[41] = system: MDA-N
[42] = system: HL-60
[43] = system: HCT-15
[44] = system: NCI-H23
[45] = system: NCI-H522
[46] = system: HT-29
[47] = system: PC-3
[48] = system: SW-620
[49] = system: UACC-62
[50] = system: SF-268
[51] = system: K562
[52] = system: SNB-19
[53] = system: T47D
[54] = system: 786-0
[55] = system: TK-10
[56] = system: SK-MEL-28
[57] = system: Malme-3M
[58] = system: SN12C
[59] = system: SK-OV-3

Measured: GI50

CC(=O)OC/C=C/Cn1nc(Br)c(=O)[nH]c1=O
inactive: [1] > 100 µM | [2] > 100 µM | [3] > 100 µM | [4] > 100 µM | [5] > 100 µM | [6] > 100 µM | [7] > 100 µM | [8] > 100 µM | [9] > 100 µM | [10] > 100 µM | [11] > 100 µM | [12] > 100 µM | [13] > 100 µM | [14] > 100 µM | [15] > 100 µM | [16] > 100 µM | [17] > 100 µM | [18] > 100 µM | [19] > 100 µM | [20] > 100 µM | [21] > 100 µM | [22] > 100 µM | [23] > 100 µM | [24] > 100 µM | [25] > 100 µM | [26] > 100 µM | [27] > 100 µM | [28] > 100 µM | [29] > 100 µM | [30] > 100 µM | [31] > 100 µM | [32] > 100 µM | [33] > 100 µM | [34] > 100 µM | [35] > 100 µM | [36] > 100 µM | [37] > 100 µM | [38] > 100 µM | [39] > 100 µM | [40] > 100 µM | [41] > 100 µM | [42] > 100 µM | [44] > 100 µM | [45] > 100 µM | [46] > 100 µM | [47] > 100 µM | [48] > 100 µM | [49] > 100 µM | [50] > 100 µM | [51] > 100 µM | [52] > 100 µM | [53] > 100 µM | [54] > 100 µM | [55] > 100 µM | [56] > 100 µM | [57] > 100 µM | [58] > 100 µM
> 100 µM: [43]

COc1ccc(CNNC(=O)c2cc[n+]([BH2-]C#N)cc2)cc1OC
inactive: [1] > 100 µM | [2] > 100 µM | [3] > 100 µM | [4] > 100 µM | [5] > 100 µM | [6] > 100 µM | [7] > 100 µM | [8] > 100 µM | [9] > 100 µM | [10] > 100 µM | [11] > 100 µM | [12] > 100 µM | [13] > 100 µM | [14] > 100 µM | [15] > 100 µM | [16] > 100 µM | [17] > 100 µM | [18] > 100 µM | [19] > 100 µM | [20] > 100 µM | [21] > 100 µM | [23] > 100 µM | [24] > 100 µM | [25] > 100 µM | [26] > 100 µM | [27] > 100 µM | [28] > 100 µM | [29] > 100 µM | [30] > 100 µM | [31] > 100 µM | [32] > 100 µM | [33] > 100 µM | [34] > 100 µM | [35] > 100 µM | [36] > 100 µM | [37] > 100 µM | [38] > 100 µM | [39] > 100 µM | [40] > 100 µM | [41] > 100 µM | [42] > 100 µM | [45] > 100 µM | [47] > 100 µM | [48] > 100 µM | [49] > 100 µM | [50] > 100 µM | [51] > 100 µM | [52] > 100 µM | [53] > 100 µM | [54] > 100 µM | [55] > 100 µM | [56] > 100 µM | [57] > 100 µM | [58] > 100 µM
> 100 µM: [43]

CC(/C=N/N(C)C1=NCCCCN1)=N/N(C)C1=NCCCCN1
inactive: [1] > 100 µM | [2] > 100 µM | [3] > 100 µM | [4] > 100 µM | [5] 97.9 µM | [6] > 100 µM | [7] > 100 µM | [8] > 100 µM | [9] > 100 µM | [10] > 100 µM | [11] > 100 µM | [12] > 100 µM | [14] > 100 µM | [15] > 100 µM | [16] > 100 µM | [17] > 100 µM | [18] > 100 µM | [19] > 100 µM | [20] > 100 µM | [21] > 100 µM | [22] > 100 µM | [23] > 100 µM | [24] > 100 µM | [25] > 100 µM | [26] > 100 µM | [27] > 100 µM | [28] > 100 µM | [29] > 100 µM | [30] > 100 µM | [31] > 100 µM | [32] > 100 µM | [33] > 100 µM | [34] > 100 µM | [35] > 100 µM | [36] > 100 µM | [37] > 100 µM | [38] > 100 µM | [39] > 100 µM | [40] > 100 µM | [41] > 100 µM | [42] > 100 µM | [44] > 100 µM | [45] > 100 µM | [59] > 100 µM | [46] > 100 µM | [47] > 100 µM | [48] > 100 µM | [49] > 100 µM | [50] > 100 µM | [51] > 100 µM | [52] > 100 µM | [53] > 100 µM | [54] > 100 µM | [55] > 100 µM | [56] > 100 µM | [57] > 100 µM | [58] > 100 µM
> 100 µM: [43]

CC1(C)Oc2ccc(NC(=O)CCC(N)C(=O)O)cc2O1 (stereo not drawn)
> 100 µM: [43]
inactive: [1] > 100 µM | [2] > 100 µM | [3] > 100 µM | [4] > 100 µM | [5] > 100 µM | [6] > 100 µM | [7] > 100 µM | [9] > 100 µM | [10] > 100 µM | [11] > 100 µM | [12] > 100 µM | [13] > 100 µM | [14] > 100 µM | [15] > 100 µM | [16] > 100 µM | [17] > 100 µM | [18] > 100 µM | [19] > 100 µM | [20] > 100 µM | [21] > 100 µM | [22] > 100 µM | [23] > 100 µM | [24] > 100 µM | [25] > 100 µM | [26] > 100 µM | [27] > 100 µM | [28] > 100 µM | [29] > 100 µM | [30] > 100 µM | [31] > 100 µM | [32] > 100 µM | [33] > 100 µM | [34] > 100 µM | [35] > 100 µM | [36] > 100 µM | [37] > 100 µM | [38] > 100 µM | [39] > 100 µM | [40] > 100 µM | [41] > 100 µM | [42] > 100 µM | [44] > 100 µM | [45] > 100 µM | [59] > 100 µM | [46] > 100 µM | [47] > 100 µM | [48] > 100 µM | [49] > 100 µM | [51] > 100 µM | [52] > 100 µM | [53] > 100 µM | [54] > 100 µM | [55] > 100 µM | [56] > 100 µM | [57] > 100 µM | [58] > 100 µM
